In patent US9388133B2, “Pyrrole sulfonamide derivative, preparation method for same, and medical application thereof” (Jiangsu Hansoh Pharmaceutical Co., Ltd., priority 2012, dated 2016):
pIC50: −log10 of the molar value.

Assays:
H^+/K^+-ATPase = molecular target: T1, H^+/K^+-ATPase (Sus scrofa, UniProt P19156); assay: H+/K+-ATPase enzyme activity inhibition (malachite green, microsomes of porcine gastric mucosa); assay type: biochemical; conditions: pH 6.5, 10 mmol/L KCl, 37° C. 30 min
T1 construct: Microsomes of porcine gastric mucosal (rich in H^+/K^+-ATPase) obtained by sucrose gradient centrifugation; from tissue; host or cells: porcine gastric mucosa microsomes (self-manufactured, sucrose/ficoll gradient centrifugation)
T1 sequence (P19156 2-1034 limits assumed): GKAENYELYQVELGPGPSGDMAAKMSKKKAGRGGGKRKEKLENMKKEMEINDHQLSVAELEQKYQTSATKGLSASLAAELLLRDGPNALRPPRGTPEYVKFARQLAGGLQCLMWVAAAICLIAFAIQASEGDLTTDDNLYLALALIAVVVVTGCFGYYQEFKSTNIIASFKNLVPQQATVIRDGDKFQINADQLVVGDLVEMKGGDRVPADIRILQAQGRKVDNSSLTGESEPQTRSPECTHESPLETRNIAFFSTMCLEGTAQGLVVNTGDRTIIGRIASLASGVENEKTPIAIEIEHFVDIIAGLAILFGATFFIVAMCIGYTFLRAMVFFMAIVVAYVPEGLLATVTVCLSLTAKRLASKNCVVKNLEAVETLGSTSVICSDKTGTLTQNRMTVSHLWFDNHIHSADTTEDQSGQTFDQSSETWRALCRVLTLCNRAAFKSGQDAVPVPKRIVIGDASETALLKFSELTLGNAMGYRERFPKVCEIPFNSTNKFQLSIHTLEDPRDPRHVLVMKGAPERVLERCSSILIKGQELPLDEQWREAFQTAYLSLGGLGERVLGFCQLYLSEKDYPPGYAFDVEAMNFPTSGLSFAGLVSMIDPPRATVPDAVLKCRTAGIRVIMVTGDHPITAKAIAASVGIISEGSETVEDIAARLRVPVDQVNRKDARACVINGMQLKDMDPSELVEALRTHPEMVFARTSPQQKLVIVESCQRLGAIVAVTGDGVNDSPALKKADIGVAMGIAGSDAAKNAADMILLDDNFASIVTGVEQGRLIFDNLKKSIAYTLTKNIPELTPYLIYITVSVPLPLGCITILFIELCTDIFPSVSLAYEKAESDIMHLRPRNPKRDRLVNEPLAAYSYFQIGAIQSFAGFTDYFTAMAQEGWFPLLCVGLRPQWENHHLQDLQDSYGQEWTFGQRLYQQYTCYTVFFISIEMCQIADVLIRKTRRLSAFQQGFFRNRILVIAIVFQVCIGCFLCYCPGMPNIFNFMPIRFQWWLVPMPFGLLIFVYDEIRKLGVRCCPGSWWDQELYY
T1 sequence (P18434 whole entry partner): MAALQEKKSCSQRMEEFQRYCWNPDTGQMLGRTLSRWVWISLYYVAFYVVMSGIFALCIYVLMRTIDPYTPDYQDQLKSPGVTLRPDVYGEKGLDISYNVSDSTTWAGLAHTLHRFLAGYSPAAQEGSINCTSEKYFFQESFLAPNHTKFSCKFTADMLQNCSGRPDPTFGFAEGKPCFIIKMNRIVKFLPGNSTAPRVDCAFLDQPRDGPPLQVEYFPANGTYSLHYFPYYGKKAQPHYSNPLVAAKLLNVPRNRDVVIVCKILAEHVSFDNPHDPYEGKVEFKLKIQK
Experimental: The following in-vitro screening test was used for determining the inhibition effect of the compounds of the present invention on enzyme activity of H^+/K^+-ATPase.
1. microsomes of porcine gastric mucosa (rich in H^+/K^+-ATPase) (self-manufactured)
1. The compounds were prepared into appropriate concentrations of 10000, 1000, 100, 10, 1 and 0.1 nM with 100% DMSO;
2. Buffer solution 1: 50 mmol/L of HEPES-Tris, 5 mmol/L of magnesium chloride, pH of 6.5;
3. Buffer solution 2: 50 mmol/L of HEPES-Tris, 5 mmol/L of magnesium chloride, pH of 6.5, 10 mmol/L of potassium chloride, pH=6.5;
4. ATP: ATP was diluted with the buffer solution 1 to 2 mM;
5. Malachite green solution: 0.12% of malachite green was dissolved in 2.5 moles of a mixture of sulfuric acid, 7.5% ammonium molybdate and 11% Tween 20, the three components were mixed according to a ratio of 100:25:2 during the use.
6. Microsomes of porcine gastric mucosal (rich in H^+/K^+-ATPase) obtained by sucrose gradient centrifugation: a porcine stomach was washed with running water, and immersed into 3 mol/L of concentrated brine for 1-2 min, and then wiped dry; the gastric mucosas were separated, minced, then suspended in a solution of 0.25 mol/L of sucrose, 1 mmol/L of EDTA, and 10 mmol/L of Tris-HCl; homogenization treatment was performed (the ratio was 100 g:330 mL, and 300 mL was further added after the completion of full homogenization), and the resulting homogenate was centrifugalized at 20000G for 30 min to remove the precipitate; the supernatant fluid was taken and centrifugalized at 100000G for 90 min; the precipitate was taken and suspended in 0.25 mol/L of sucrose solution, 0.25 mol/L of sucrose, 7.5% of ficoll were added at the bottom and centrifugalized at 100000G for 5 h. The substances between two liquid surface layers were collected, and then washed with 0.25 mol/L of sucrose solution while being shaken, and the resulting microsomal enzymes were kept at −80° C. for preservation and later use.
10 μL of microsomes of gastric mucosa (H^+/K^+-ATPase) were added to 79 μL of the buffer solution 2, followed by addition of 1 μL of the compound solutions with various concentrations, and then 10 μL of 2 mM ATP were added to start the reaction. It was reacted at 37° C. for 30 min. 30 μL of malachite green solution was added to terminate the reaction, and the reaction solution was kept at room temperature for 20 min, and then an OD value was read at 620 nm on a Victor3 microplate reader, and the inhibition rates of the compounds at various concentrations against H^+/K^+-ATPase were calculated.
Simultaneously, the reaction without addition of potassium chloride was taken as a background, which was subtracted when enzyme activity was calculated.
IC50 values can be calculated from the inhibition rates of the test compounds at various concentrations.

[1] = tested on: gastric acid secretion of rats with pyloric ligation induced ulcer; assay: Inhibition of gastric acid secretion of rats with pyloric ligation induced ulcer, histamine-stimulated, 1 h after administration (Test Example 2); assay type: in vivo, rat; conditions: SD male rats, 2 mg/kg i.g., acid output within 3 h of histamine
Experimental: A rat gastric ulcer model, in which rat gastric acid secretion was promoted by pyloric ligation and histamine hydrochloride, was established in the following experiment, for evaluating the effect of the test compounds on inhibition of gastric acid secretion.
(§1) Sixteen 7-week-old Sprague-Dawley (SD) male rats with a weight of about 250 g were purchased form Sippr-BK (batch number: 2008001621913). The rats were fed by 4 rats/cage, 12/12 h light/dark cyclic regulation was performed, the temperature was constant at 23±1° C., the humidity was 50-60%, and the rats took food and water freely.
The compound of Example 1, which was prepared into a solution/suspension with 0.5% of sodium carboxymethylcellulose (CMC-Na).
(§2) The rats were fasted for about 4 h. 2 mg/kg of the compound of Example 1 or 0.5% of CMC-Na were administrated intragastrically (i. g.) to the rats, and then 1.2 g/kg of urethane was injected intraperitoneally within 1 h. […] After centrifugalizing at 4000 rpm for 5 min, the supernatant fluid was sucked up, and the volume of each sample was measured accurately. […]
(§3) Gastric acid titration: the mean value (mean±S.D.) was calculated in each group by Excel software, t test was performed on the total acid value of gastric acid from treatment groups and model group subjects/animals at each time point after drug administration to judge whether a significant difference existed or not. […]

[2] = tested on: gastric acid secretion of rats with pyloric ligation induced ulcer; assay: Inhibition of gastric acid secretion of rats with pyloric ligation induced ulcer, histamine-stimulated, 24 h after administration (Test Example 3); assay type: in vivo, rat; conditions: SD male rats, acid output within 3 h of histamine
Experimental: A rat gastric ulcer model, in which rat gastric acid secretion was promoted by pyloric ligation and histamine hydrochloride, was established in the following experiment, for evaluating the effect of the test compounds on inhibition of the gastric acid secretion.
as §1, with “Twenty-four (24)” for “Sixteen”, “SD” for “Sprague-Dawley (SD)”
The compound of Example 1 was prepared into a solution/suspension with 0.5% of CMC-Na.
as §2, with “about 24 h.” for “about”, “4 mg/kg and 8” for “4 h. 2”, “(i. g)” for “(i. g.)”, “within 24” for “within 1”, “for 10” for “for 5”
as §3

SMILES | pIC50 (H^+/K^+-ATPase) | acid inhibition rate at 1 h [1] | acid inhibition rate at 24 h ([2]; 4 mg/kg i.g.) | acid inhibition rate at 24 h ([2]; 8 mg/kg i.g.)
CNCc1cc(-c2ccccc2F)n(S(=O)(=O)c2ccc(OCC3(C(=O)NC)CC3)cc2)c1 [Example 6, 1-((4-((2-(2-fluorophenyl)-4-((methylamino)methyl)-1H-pyrrol-1-yl)sulfonyl)phenoxy)methyl)-N-methylcyclopropylcarboxamide] | 6.97 |  |  | 
CNCc1cc(C2=CCCCC2)n(S(=O)(=O)c2cccc(OCC(=O)NC3CC3)c2)c1 [Example 7, 2-(3-((2-(cyclohex-1-en-1-yl)-4-((methylamino)methyl)-1H-pyrrol-1-yl)sulfonyl)phenoxy)-N-cyclopropylacetamide] | 7.02 |  |  | 
CNCc1cc(-c2ccccc2F)n(S(=O)(=O)c2cccc(OCC(=O)NC)c2)c1 [Example 1, 2-(3-((2-(2-fluorophenyl)-4-((methylamino)methyl)-1H-pyrrol-1-yl)sulfonyl)phenoxy)-N-methylacetamide] | 7.68 | 89.3% | 89.6% | 99.4%

The remaining compounds from weak to strong by pIC50 (H^+/K^+-ATPase), led by results:

pIC50 (H^+/K^+-ATPase) | SMILES | acid inhibition rate at 1 h [1] | acid inhibition rate at 24 h ([2]; 4 mg/kg i.g.) | acid inhibition rate at 24 h ([2]; 8 mg/kg i.g.)
7.09 | CNCc1cc(-c2ccccc2F)n(S(=O)(=O)c2cccc(OCC3(C(=O)NC)CC3)c2)c1 [Example 5, 1-((3-((2-(2-fluorophenyl)-4-((methylamino)methyl)-1H-pyrrol-1-yl)sulfonyl)phenoxy)methyl)-N-methylcyclopropylcarboxamide] |  |  | 
7.20 | CNCc1cc(-c2ccccc2F)n(S(=O)(=O)c2ccc(OCC(=O)NC)cc2)c1 [Example 4, 2-(4-((2-(2-fluorophenyl)-4-((methylamino)methyl)-1H-pyrrol-1-yl)sulfonyl)phenoxy)-N-methylacetamide] |  |  | 
7.21 | CNCc1cc(-c2ccccc2F)n(S(=O)(=O)c2cccc(OCC(=O)NCCCO)c2)c1 [Example 11] |  |  | 
7.31 | CNCc1cc(-c2ccccc2F)n(S(=O)(=O)c2cccc(OCC(=O)NCCO)c2)c1 [Example 10, 2-(3-((2-(2-fluorophenyl)-4-((methylamino)methyl)-1H-pyrrol-1-yl)sulfonyl)phenoxy)-N-(2-hydroxyethyl)acetamide] |  |  | 
